Read-outs that look alike come from different tables or passages of the source.
How the values were obtained:
[1] = Behaviour in strongly acidic gastric juice (1 N HCl, pH 0.1); format: physicochemical; conditions: orally administered
[2] = Stability in an aqueous solution of hydrochloric acid, half life; format: physicochemical; conditions: 37° C., 50 μM complex, in the dark
Procedure: Stability of each of the thus obtained complexes in an aqueous solution of hydrochloric acid at 37° C. is shown below in terms of its half life.
The measurement was carried out at a complex concentration of 50 μM at 37° C. in the dark.

[3] = In vitro reduction by an ascorbic acid salt, half life; format: physicochemical; conditions: 50 μM complex, pH 7.5 (50 mM HEPES-NaOH), 37° C., dark; for Half life (reduction), 5 mM: 5 mM ascorbic acid salt; for Half life (reduction), 100 mM: 100 mM ascorbic acid salt
Procedure: Test results of the in vitro reduction of the thus obtained complexes by an ascorbic acid salt are shown below in terms of half life.
The measurement was carried out at a complex concentration of 50 μM, pH 7.5 (50 mM HEPES-NaOH buffer), at 37° C. in the dark.

L 1210 [4] = format: in vivo, CDF1 mouse; conditions: days 1, 5 and 9; for T/C %: 125 or more judged effective
Procedure: ip: On the day 0, L 1210 (10^5 cells/mouse) was transplanted into the abdominal cavity of each CDF1 mouse, and each of the platinum complexes was intraperitoneally administered on the day 1, day 5 and day 9 (Q04D×03). Using 5 animals in one group, T/C % (T: treated, C: control) is calculated from survived days. A T/C % value of 125 or more was judged effective. The number of survived (or tumor bearing) animals is shown as n/5. A total of 10 mice were used in the control.
Carcinostatic effect ip--ip, L 1210, three administrations on days 1, 5 and 9
L 1210 (10^5 cells/mouse), one group=5 CDF1 mice, ip administration on the days 1, 5 and 9.

L 1210 [5] = assay: (Oral) carcinostatic effect L 1210, ip-po; format: in vivo, CDF1 mouse; conditions: Q02D×05, suspension in olive oil, 140% or more judged effective
Procedure: po: On the day 0, L 1210 (10^5 cells/mouse) was transplanted into the abdominal cavity of each CDF1 mouse, and each of the platinum complexes was orally administered on the day 1, day 3, day 5, day 7 and day 9 (Q02D×05), or on the day 1 to day 5 (Q01D×05). The oral administration was carried out with a 10, 7.5 or 5 times higher dose than the optimum amount of each platinum complex by ip (T/C % of ip; 100 mg/kg, 75 mg/kg or 50 mg/kg, respectively). A value of 140% or more was judged effective.
(Oral) carcinostatic effect L 1210, ip-po, every two days Q02D×05
L 1210 (10^5 cells/mouse); one group=5 CDF1 mice; Suspension in olive oil was administered into the stomach through a catheter.

[6] = clinical trial; cited from earlier work

Compound	one carboxylic acid substituted by Cl [1]	Half life, 0.05 M HCl [2]	Half life, 1 M HCl [2]	Half life (reduction), 5 mM [3]	Half life (reduction), 100 mM [3]	T/C % (L 1210 [4]; 25 mg/kg ip)	number of survived (or tumor bearing) animals (n/5) (L 1210 [4]; 50 mg/kg ip)	T/C % (L 1210 [4]; 50 mg/kg ip)	T/C % (L 1210 [4]; 100 mg/kg ip)	T/C % (L 1210 [5]; 2.5 mg/kg po)	T/C % (L 1210 [5]; 5 mg/kg po)	T/C % (L 1210 [5]; 10 mg/kg po)	T/C % (L 1210 [5]; 15 mg/kg po)	T/C % (L 1210 [4]; 12.5 mg/kg ip)	number of survived (or tumor bearing) animals (n/5) (L 1210 [4]; 25 mg/kg ip)	clinical development / side effects [6]
CCCC(=O)[O][Pt]12([O]C(=O)CCC)([NH]C3CCCCC3[NH]1)[O]C(=O)C(=O)[O]2 [Complex C4-OHP, t,c,c-[Pt (OCOC3 H7)2 (ox) (1R,2R-dach)]]	gradually substituted by Cl	–	–	–	–	–	–	–	–	–	–	–	–	–	–	–
CCCCCC(=O)[O-].NC1CCCCC1N.O=C([O-])C(=O)[O-].[Cl-].[Pt+4] [C6--OHP · Cl, [PtCl (OCOC5 H11) (oxalato) (1R,2R-dach)]]	–	N.D. (significant decrease in concentration was not observed)	8.9 h	1.2 h	< 6 min	173%	1/5	280%	80%	143%	191%	168%	98%	–	–	–
CCCCCCC(=O)[O-].NC1CCCCC1N.O=C([O-])C(=O)[O-].[Cl-].[Pt+4] [C7--OHP · Cl, [PtCl(OCOC6 H13) (oxalato) (1R,2R-dach)]]	–	N.D. (significant decrease in concentration was not observed)	11.3 h	1.6 h	< 6 min	137%	–	176%	–	117%	129%	151%	–	122%	–	–
CCCCC(=O)[O-].NC1CCCCC1N.O=C([O-])C(=O)[O-].[Cl-].[Pt+4] [C5--OHP · Cl, t,t,c,c-[PtCl(OCOC4 H9)(ox)(1R,2R-dach)]]	–	> 50 h	7.4 h	0.8 h	< 6 min	168%	4/5	283%	88%	140%	214%	143%	60%	–	–	–
CCCCCC(=O)[O-].NC1CCCCC1N.O=C([O-])C(=O)[O-].[Br-].[Pt+4] [C6--OHP · Br]	–	–	–	–	–	373%	–	96%	69%	–	173%	180%	88%	–	4/5	–
N[C@@H]1CCCC[C@H]1N.[Cl][Pt+2]([Cl])([Cl])[Cl] [tetraplatin]	–	–	–	–	–	–	–	–	–	–	–	–	–	–	–	clinical development has been suspended due to the side effects, such as toxicity
CCCC(=O)[O-].NC1CCCCC1N.O=C([O-])C(=O)[O-].[Cl-].[Pt+4] [C4--OHP · Cl, [PtCl(OCOC3 H7) (oxalato) (lR,2R-dach)]]	–	> 50 h	6.1 h	0.6 h	< 6 min	145%	–	195%	63%	–	–	–	–	130%	–	–
CCCCCC(=O)[O-].CCCCCC(=O)[O-].NC1CCCCC1N.O=C([O-])C(=O)[O-].[Pt+4] [Complex C6-ORP, t,c,c-[Pt (OCOC5 H11)2 (ox) (1R,2R-dach)]]	gradually substituted by Cl	–	–	–	–	–	–	–	–	–	–	–	–	–	–	–
CCCCC(=O)O.CCCCC(=O)O.N[C@@H]1CCCC[C@H]1N.O=C(O)C(=O)O.[Pt] [Complex C5-OHP, t,c,c-[Pt (OCOC4 H9)2 (ox) (1R,2R-dach)]]	gradually substituted by Cl	–	–	–	–	–	–	–	–	–	–	–	–	–	–	–
CCCCC(=O)[O-].NC1CCCCC1N.O=C([O-])C(=O)[O-].[Br-].[Pt+4] [C5--OHP · Br, t,t,c,c-[PtBr(OCOC4 H9)(ox)(1R,2R-dach)]]	–	–	–	–	–	395%	–	107%	–	–	160%	163%	73%	–	4/5	–

Reference: US6008395A, “Platinum (IV) complex, production process thereof and carcinostatic agent containing the same” (priority 1995, dated 1999)
